Among the data in patent US10863748B2, “Antibacterial products and processes for preparing antibacterial products from maple syrup” (priority 2016, dated 2020) are antimicrobial effect values, retold here.

In the assay the test system is three bacteria and one yeast. Description: Antimicrobial effect of melamine per se. It counts as cell-based.

`Nc1nc(N)nc(N)n1` [melamine, 2,4,6-triamino-1,3,5-triazine]: the antimicrobial effect result is reported as “did not exhibit any antimicrobial effect”.
